Here are results for six molecules from patent US6790650B2, “Cacao endoproteinases and production of cocoa flavor from same” (Nestec S.A., priority 2000, dated 2004).

Square brackets hold non-standard residues; d marks the D form. Peptide text beside a SMILES is read from it. * marks the point of attachment. Sta = CC(C)C[C@H](N)[C@@H](O)CC(=O)O; Isovaleryl = CC(C)CC(=O)*

In test [1] the test system is carboxypeptidase activity. The settings on record: cited from earlier work.
The next test concerns recombinant TcAP2. Put plainly: Effect of inhibitors on hydrolysis of bovine haemoglobin by recombinant TcAP2. The test is classed as biochemical, Theobroma cacao. To be noted: 2 μM pepstatin; for Effect on endoprotease activity of recombinant TcAP2: pH 3, 2 mM 1.10 phenanthroline, 100 μM DCI, 10 μM E64. The procedure: Inhibitors were added in the reaction at final concentration of 2 mM for 1.10 phenanthroline, 100 μM DCI, 10 μM E64 and 2 μM pepstatin. Activity at pH 3 without inhibitor was taken as 100% and correspond to 28.8±3.8 pmoles L-leucine produced/min/mg protein. Data are means of 3 measurements±SD;
(§1) Aspartic endoproteinase activity was assayed at 42° C. in a 900 μl reaction medium containing 0.2M sodium citrate buffer pH3.0, 10 mg/ml bovine haemoglobin and 150 μl yeast culture supernatant. To stop the reaction aliquots (80 μl) were added to an equal volume of TCA 8% and the precipitated protein removed by centrifugation at 13000 g. 20 μl supernatant were mixed to 250 μl O-phthaldialdehyde (OPA) reagent (50 mM sodium tetraborate, 1% SDS, 5.96 mM OPA (dissolved in 1 ml methanol) and 1.43 mM β-mercaptoethanol. Activity was then determined measuring OD at 340 nm and expressed in pmole leucine produced per mg protein. For this, we use the following linear equation (OD340 nm=0.0156 pmoles+0.0088), which was determined using a standard curve with L-leucine (0 to 80 pmoles). Protein concentration was determined by Bradford assay (Biorad).
The pepstatin insensitive activity (1.91±1.26 pmoles L-leucine/min/mg protein, 6.65%) is in the same range as that one measured for the control strain (2.26±1.26 pmoles L-leucine/min/mg protein, 7.8%). Other inhibitors such as 1.10 phenanthroline (metallo proteases), DCI (serine proteases) and E64 (cysteine proteases) have no effect on TcAP2 activity (FIG. 12).

The test system of test [2] is native aspartic endoproteinase (TcAP2), size exclusion purified pool #57-64. In words: Inhibitor sensitivity of the native purified aspartic endoproteinase (bovine hemoglobin hydrolysis, OPA read-out). The test is classed as biochemical, Theobroma cacao. To be noted: for Remaining Activity %: pH 3, 10 mg/ml bovine hemoglobin, pepstatin A 0.002 mM, 1,10 phenanthroline 2.0 mM, E-64 0.01 mM, DCI 0.1 mM, two replicates. The procedure: as §1
The inhibitor sensitivity of the native aspartic endoproteinase was determined in 300 μl reactions containing 200 mM sodium citrate, pH 3, 10 mg/ml bovine hemoglobin, and 5 μl of size exclusion purified pool #57-64 (2.4 μg protein/μl). The inhibitors were added to give a final concentration of 2 μM pepstatin, 2 mM 1,10 phenanthroline, 100 μM dichloroisocoumarin (DCI), 10 μM E-64. The enzyme activity was determined as described in example 5.

Test [3] concerns aspartic endoproteinase activity. To be noted: activity optimal at pH 3.5; cited from earlier work.
The test system of the next test is bovine haemoglobin. In words: Aspartic endoproteinase activity of recombinant TcAP2 in yeast culture supernatant. The format is biochemical. The protocol:
Small patches of cells were streaked on YPD agar plates and grown overnight at 28° C. The thin layers of grown cells were used to inoculate 50 ml DMI medium in 500 ml Erlenmeyers with 4 lateral baffles. DMI medium contains per liter: KH2PO4, 10 g; MgSO4,7H2O, 2.5 g; glucose, 20 g; Trace elements solution, 5.1 ml; Vitamins solution, 17 ml; urea, 3 g. Urea was dissolved in 15 ml water and sterile filtered. The initial pH of the medium was adjusted to 5.0. The cultures were shaken at 140 rpm on a rotary shaker at 28° C. for three days. Aliquots of the cultures were centrifuged at maximum speed (3000 g) for 15 min. and the supernatant used for the determination of the aspartic endoproteinase activity.
as §1

In the case of `O=S(=O)(F)Cc1ccccc1` [PMSF], in test [1], the “Inhibition of carboxypeptidase activity” value is reported as “inhibited”.

For `c1cnc2c(c1)ccc1cccnc12` [1,10 Phenanthroline, 1,10 phenanthroline], the “Effect on endoprotease activity of recombinant TcAP2” value (“Effect on endoprotease activity” for short) with recombinant TcAP2 was “no effect”. Further, the “Remaining Activity %” value in test [2] worked out at 86%.

Regarding `CC(C)C[C@H](NC(=O)[C@H]1O[C@@H]1C(=O)O)C(=O)NCCCCN=C(N)N` [E-64], in the test with recombinant TcAP2, the “Effect on endoprotease activity” value is given as “no effect”. The “Remaining Activity %” value in test [2] was 88%.

Consider `CC(C)CC(=O)N[C@H](C(=O)N[C@H](C(=O)N[C@@H](CC(C)C)[C@@H](O)CC(=O)N[C@@H](C)C(=O)N[C@@H](CC(C)C)[C@@H](O)CC(=O)O)C(C)C)C(C)C` [Pepstatin A] (Isovaleryl-VV[Sta]A[Sta]-OH), for which, in the test on recombinant TcAP2 (medium of pCY330-33, pH 3), the Pepstatin insensitive activity is on record as 1.91±1.26 pmoles L-leucine/min/mg protein. Further, the “Pepstatin insensitive activity, % of activity without inhibitor” value in the test on recombinant TcAP2 (activity at pH 3 without inhibitor taken as 100%) stood at 6.65%. Further, the “Effect on endoprotease activity” value with recombinant TcAP2 is listed as “completely inhibited”. Also, in test [3], the “Inhibition of aspartic endoproteinase activity” value is “inhibited”. Further, the “Inhibition of the purified native protease activity” value in test [2] (2 μM pepstatin, pH 3) was “inhibits completely”. Besides, the “Remaining Activity %” value in test [2] is given as 0%.

With `O=c1oc(Cl)c(Cl)c2ccccc12` [DCI, dichloroisocoumarin], the “Effect on endoprotease activity” value in the test with recombinant TcAP2 is reported as “no effect”. Also, the “Remaining Activity %” value in test [2] is 90%.

B1: TcAP2: aspartic endoproteinase from Theobroma cacao bean (clone CCN51), 514 amino acids; recombinant form secreted by Yarrowia lipolytica clone pCY330-33 (protein)
chain: MGTTIKVVVLSLFISSLLFSVVSSVSNDGLVRIGLKKMKLDPNNRLAARLDSKDGEALRAFIKKYRFRNNLGDSEETDIVALKNYMDAQYYGEIGIGTPTQKFTVIFDTGSSNLWVSSTKCYFSVACYFHEKYKASDSSTYKKDGKPASIQYGTGAISGFFSYDHVQVGDLVVKDQEFIEATKEPGLTFMVAKFDGILGLGFKEISVGDAVPVWYNMIKQGLIKEPVFSFWLNRNVDEEAGGEIVFGGVDPNHYKGKHTYVPVTQKGYWQFDMGDVLIADKPTGYCAGSCAAIADSGTSLLAGPSTVITMINHAIGATGVVSQECKAVVQQYGRTIIDLLIAEAQPQKICSQIGLCTFNGAHGVSTGIESVVDESNGKSSGVLRDAMCPACEMAVVWMQNQVRQNQTQDRILSYVNELCDRVPNPMGESAVDCGSLSSMPTISFTIGGKVFDLTPEEYILKVGEGSEAQCISGFTALDIPPPRGPLWILGDIFMGRYHTVFDFGKLRVGFAEAA
As for B1, in the test on bovine haemoglobin (FIG. 12, means of 3 measurements±SD), the “Activity at pH 3 without inhibitor (taken as 100%)” value is 28.8±3.8 pmoles L-leucine produced/min/mg protein. Also, the “Hydrolysis of bovine haemoglobin by supernatant from pCY330-33” value in the test with bovine haemoglobin (pH 3.0, 42° C., means of 3 measurements±SD (FIG. 10)) is reported as 25.8±1.45 pmoles L-leucine/min/mg protein. In the test on bovine haemoglobin (pH higher than 5), the “Activity at pH higher than 5” value is “slight activity”.
